This note sets out measurements from PubChem BioAssay (NCI).

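Test compounds were applied to cells in 96-well plates for 48 hours at 5 doses. At the TGI there is no net growth.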

Among the test systems are A549 NSCLC; ACHN renal; BT-549 breast; CAKI-1 renal; OVCAR-4 ovarian; SK-OV-3 ovarian; SN12C renal; SNB-19 CNS; UACC-257 melanoma; UACC-62 melanoma.
What all share (assay): growth of human tumour cells (NCI), 48 h

`CC(=O)n1nc(-c2ccccc2)n(/N=C/c2ccc([N+](=O)[O-])o2)c1=O`: the TGI in the assay with A549 NSCLC turned out to be 25 µM; with ACHN renal, 19.1 µM; with BT-549 breast, 17.6 µM; in the assay on CAKI-1 renal it was 24.4 µM; with OVCAR-4 ovarian, 35.6 µM; in the assay with SK-OV-3 ovarian it was 40.2 µM. Moreover, the TGI is 7.39 µM in the assay with SN12C renal, 36.9 µM in the assay on SNB-19 CNS, 12.2 µM in the assay with UACC-257 melanoma and 23.8 µM in the assay with UACC-62 melanoma.
With `O=[N+]([O-])c1cc(Cl)ccc1Sc1ccccc1`, the TGI with A549 NSCLC, with ACHN renal, with BT-549 breast, in the assay with CAKI-1 renal, with OVCAR-4 ovarian and in the assay with SK-OV-3 ovarian was greater than 100 µM each time. Further, the TGI with SN12C renal, in the assay on SNB-19 CNS, in the assay with UACC-257 melanoma and in the assay with UACC-62 melanoma was greater than 100 µM throughout.
Regarding `Cc1cc(NS(=O)(=O)c2ccc(NC(NC(=O)C(C(F)(F)F)C(F)(F)F)(C(F)(F)F)C(F)(F)F)cc2)no1`, the TGI with A549 NSCLC, in the assay with ACHN renal, in the assay with BT-549 breast, in the assay with CAKI-1 renal, in the assay with OVCAR-4 ovarian and in the assay with SK-OV-3 ovarian was greater than 100 µM each time. The TGI in the assay with SN12C renal, in the assay with SNB-19 CNS, in the assay with UACC-257 melanoma and with UACC-62 melanoma was greater than 100 µM in each case.
As for `C[C@H]1[C@H](C)CC[C@]2(C(=O)OC3OC(CO)C(O)C(O)C3O)CC[C@]3(C)C(=CC[C@@H]4[C@@]5(C)C[C@H]6OC(=O)c7cc(O)c(O)c(O)c7-c7c(cc(O)c(O)c7O)C(=O)O[C@@H]6C(CO)(CO)[C@@H]5CC[C@]43C)[C@H]12` (stereo not given in full), the TGI in the assay with A549 NSCLC was greater than 100 µM; with ACHN renal, greater than 100 µM; in the assay with BT-549 breast, greater than 100 µM; in the assay on CAKI-1 renal it was greater than 84.1 µM; with OVCAR-4 ovarian, greater than 100 µM; in the assay on SK-OV-3 ovarian, greater than 100 µM. The TGI in the assay with SN12C renal, in the assay with SNB-19 CNS, in the assay with UACC-257 melanoma and with UACC-62 melanoma was greater than 100 µM throughout.
In the case of `Clc1nncc2sc(-c3ccccc3)nc12`, the TGI with A549 NSCLC was greater than 100 µM; in the assay on ACHN renal, greater than 84.9 µM; in the assay with BT-549 breast, greater than 53.2 µM; with CAKI-1 renal it was 2.91 µM; in the assay with OVCAR-4 ovarian, 53.5 µM; with SK-OV-3 ovarian it was 80.6 µM. The TGI is 57.7 µM with SN12C renal, 51.4 µM with SNB-19 CNS, 56.7 µM with UACC-257 melanoma and 46.4 µM in the assay on UACC-62 melanoma.
With `O=S1SC(=S)C2C=CC=CC21` (stereo not given), the TGI with A549 NSCLC, in the assay on ACHN renal, in the assay with BT-549 breast, in the assay with CAKI-1 renal, in the assay with OVCAR-4 ovarian and in the assay with SK-OV-3 ovarian was greater than 100 µM in each case. The TGI with SN12C renal, in the assay on SNB-19 CNS, in the assay on UACC-257 melanoma and with UACC-62 melanoma was greater than 100 µM in each case.
As to `O=c1c2ccccc2sc2ccccc12`, the TGI in the assay with A549 NSCLC, in the assay on ACHN renal, in the assay on BT-549 breast, in the assay on CAKI-1 renal, in the assay with OVCAR-4 ovarian and in the assay with SK-OV-3 ovarian was greater than 100 µM each time. In addition, the TGI in the assay with SN12C renal, with SNB-19 CNS, in the assay on UACC-257 melanoma and in the assay on UACC-62 melanoma was greater than 100 µM in each case.
Consider `O=C(CC(=O)Nc1ccccc1)NNC(c1cc(N=Nc2ccc(Br)cc2)ccc1O)P(O)O` (stereo not given), for which the TGI in the assay on A549 NSCLC, in the assay on ACHN renal, with BT-549 breast, in the assay with CAKI-1 renal, with OVCAR-4 ovarian and in the assay on SK-OV-3 ovarian was greater than 10 µM throughout. Further, the TGI in the assay with SN12C renal was greater than 10 µM; in the assay with SNB-19 CNS, greater than 10 µM; in the assay on UACC-257 melanoma it was greater than 10 µM; with UACC-62 melanoma, 9.13 µM.
With `COc1ccc2c(c1)c(=O)c1c(NCCNCCO)ccc3c(=O)n(CCN(C)C)c(=O)n2c31`, the TGI was 3.17 µM with A549 NSCLC; 1.49 µM with ACHN renal; 2.49 µM with BT-549 breast; 2.79 µM in the assay with CAKI-1 renal; 0.511 µM with OVCAR-4 ovarian; 2.71 µM in the assay with SK-OV-3 ovarian. The TGI in the assay on SN12C renal stood at 0.64 µM; with SNB-19 CNS, 0.997 µM; in the assay with UACC-257 melanoma it was 1.06 µM; in the assay on UACC-62 melanoma it was 0.293 µM.
In the case of `COc1nc2c(N3CCCC3)nc(N3CCNCC3)nc2nc1NCc1ccccc1`, the TGI with A549 NSCLC stood at 5.34 µM; in the assay on ACHN renal it was 7.01 µM; in the assay on BT-549 breast, 4.01 µM; in the assay with CAKI-1 renal, 8.8 µM; in the assay with OVCAR-4 ovarian it was 11.5 µM; with SK-OV-3 ovarian it was 4.68 µM. The TGI in the assay with SN12C renal amounted to 4.95 µM; with SNB-19 CNS, 4.19 µM; with UACC-257 melanoma it was 3.35 µM; in the assay on UACC-62 melanoma, 3.29 µM.
Turning to `O=S1(=O)c2cnccc2NC(=NCc2ccccc2)N1c1ccccc1`, the TGI with A549 NSCLC, in the assay with ACHN renal, in the assay on BT-549 breast, with CAKI-1 renal, with OVCAR-4 ovarian and with SK-OV-3 ovarian was greater than 100 µM in each case. The TGI with SN12C renal, in the assay on SNB-19 CNS, with UACC-257 melanoma and with UACC-62 melanoma was greater than 100 µM each time.
In the case of `CC(C)=CCC[C@@H](C)C1=C(O)C(N)=C(C)C(=O)C1=O`, the TGI with A549 NSCLC was greater than 100 µM; in the assay with ACHN renal, 65.4 µM; with BT-549 breast it was greater than 100 µM; in the assay with CAKI-1 renal, greater than 83.6 µM; in the assay on OVCAR-4 ovarian, greater than 100 µM; with SK-OV-3 ovarian it was greater than 100 µM. Moreover, the TGI with SN12C renal was greater than 100 µM; in the assay with SNB-19 CNS, greater than 100 µM; in the assay on UACC-257 melanoma, greater than 100 µM; in the assay with UACC-62 melanoma it was greater than 93.4 µM.
Regarding `O=C(O)CN(CC(=O)O)C(C(=O)O)c1ccccc1` (stereo not given), the TGI with A549 NSCLC, with ACHN renal, in the assay with BT-549 breast, with CAKI-1 renal, with OVCAR-4 ovarian and in the assay on SK-OV-3 ovarian was greater than 100 µM each time. Further, the TGI in the assay on SN12C renal, in the assay on SNB-19 CNS, in the assay with UACC-257 melanoma and with UACC-62 melanoma was greater than 100 µM each time.
